Assay in all cases: NCI tumour cell line growth inhibition, 48 h
Assay [1] deals with 786-0 renal.
For assay [2], the system named is COLO 205 colon.
The test system of assay [3] is HCT-116 colon.
Assay [4] relates to HOP-62 NSCLC.
Assay [5] relates to MDA-MB-231 breast.
Assay [6] has as its system MDA-MB-435.
For assay [7], the system named is MOLT-4 leukemia.
The subject of assay [8] is NCI-H460 lung.
The subject of assay [9] is SNB-75 CNS.
The subject of assay [10] is T-47D breast.

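How tested: cells in 96-well plates exposed to compound for 48 hours at five concentrations. TGI is the concentration that stops growth completely.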

Take `O=c1c2ccccc2oc2nc3n(c(=O)c12)CCCS3`: the TGI in assay [1], in [2], in assay [3], in [4], in assay [5] and in [6] was greater than 100 µM each time. For the same compound, the TGI in assay [7], in assay [8], in [9] and in [10] was greater than 100 µM in each case.
As to `CCOC(=O)c1cn(-c2ccccc2)c(=S)n2c1nc1ccccc12`, the TGI in assay [1] was greater than 100 µM; in assay [2], greater than 64.8 µM; in assay [3], greater than 100 µM; in [4] it was greater than 100 µM; in assay [5] it was greater than 100 µM; in [6], greater than 94.8 µM. Further, the TGI in assay [7] was 17.5 µM; in [8] it was greater than 100 µM; in assay [9], greater than 100 µM; in assay [10] it was greater than 100 µM.
As to `O=C(CSCC(=O)N/N=C/c1cc(I)cc(I)c1O)N/N=C/c1cc(I)cc(I)c1O`, the TGI is 22.2 µM in assay [1]; 63.8 µM in assay [2]; 33.9 µM in assay [3]; 33.4 µM in assay [4]; 25.1 µM in assay [5]; 92.9 µM in assay [6]. The TGI in [7] was 29.2 µM; in [8] it was 82 µM; in assay [9], 19.5 µM; in assay [10] it was greater than 100 µM.
For the compound `C=C(C)C(=O)CC[C@@H](C)[C@H]1[C@@H](OC2OC(CO)C(O)C(O)C2O)C[C@@]2(C)[C@@H]3C[C@H](O)C4C(C)(C)[C@@H](OC5OC(CO)C(O)C(O)C5O)CC[C@@]45C[C@@]35CC[C@]12C` (stereo not given in full), the TGI in assay [1], in assay [2], in [3], in [4], in assay [5] and in [6] was greater than 100 µM in each case. Further, the TGI in assay [7], in assay [8], in assay [9] and in assay [10] was greater than 100 µM throughout.
As to `CCCCNC1CCC2(SCCS2)c2[nH]c3ccccc3c21` (stereo not given), the TGI in assay [1] was 80 µM; in assay [2] it was greater than 62.3 µM; in [3], 50.1 µM; in [4], greater than 100 µM; in assay [5], greater than 62.6 µM; in assay [6] it was greater than 49.6 µM. Moreover, the TGI in assay [7] is 33.5 µM; in assay [8], greater than 100 µM; in assay [9], greater than 100 µM; in [10], 6.23 µM.
On to `Cc1ccc(S(=O)(=O)c2scc(-c3ccccc3)c2C)cc1`, for which the TGI in [1], in assay [2], in assay [3], in assay [4], in assay [5] and in [6] was greater than 100 µM each time. The TGI in [7], in assay [8], in assay [9] and in assay [10] was greater than 100 µM in each case.
With `CN(C)c1nc2sc3c(c2c(=O)o1)CCCC3`, the TGI is greater than 100 µM in assay [1]; 53.1 µM in assay [2]; greater than 100 µM in [3]; greater than 100 µM in assay [4]; greater than 100 µM in assay [5]; greater than 100 µM in [6]. For the same compound, the TGI is greater than 100 µM in [7], greater than 100 µM in assay [8], 95.2 µM in assay [9] and greater than 100 µM in assay [10].
As for `O=S(=O)(Oc1ccc2oc3ccccc3c2c1-c1c(OS(=O)(=O)C(F)(F)F)ccc2oc3ccccc3c12)C(F)(F)F`, the TGI in assay [1], in assay [2], in assay [3], in assay [4], in assay [5] and in assay [6] was greater than 100 µM throughout. Further, the TGI in assay [7], in assay [8], in assay [9] and in assay [10] was greater than 100 µM each time.
Turning to `O=C1C=CC2CCC1C2` (stereo not given), the TGI in [1] was greater than 100 µM; in assay [2], greater than 100 µM; in [3], greater than 100 µM; in assay [4], greater than 100 µM; in assay [5], greater than 100 µM; in assay [6] it was 61.5 µM. Further, the TGI in [7], in assay [8], in assay [9] and in assay [10] was greater than 100 µM in each case.
In the case of `Clc1ccc2c(SCC3CO3)c3ccccc3nc2c1` (stereo not given), the TGI stood at 3.44 µM in assay [1]; 10.7 µM in [2]; 3.04 µM in assay [3]; 17.6 µM in [4]; 6.64 µM in assay [5]; 20.2 µM in assay [6]. For the same compound, the TGI worked out at 4.3 µM in [7], 20.9 µM in assay [8], 60.5 µM in assay [9] and 4.97 µM in assay [10].
Regarding `CCOc1cc2c(cc1O)/C(=N\N)C[C@@H]1[C@@H]2CC[C@]2(C)[C@@H](O)CC[C@@H]12`, the TGI is greater than 38.5 µM in assay [1]; greater than 56.5 µM in [2]; greater than 37.8 µM in [3]; greater than 100 µM in assay [4]; greater than 42.9 µM in assay [5]; 4.95 µM in assay [6]. The TGI was greater than 100 µM in assay [7], greater than 33.6 µM in assay [8], greater than 25.8 µM in assay [9] and greater than 39.5 µM in [10].
As to `CC[C@@]1(O)C(=O)OCc2c1cc1n(c2=O)Cc2c-1nc1ccccc1c2/C=N\NC(=O)C(N)CC(C)C` (stereo not given in full), the TGI in [1] was greater than 100 µM; in assay [2] it was 12.1 µM; in [3], 5.37 µM; in assay [4] it was 0.382 µM; in [5], greater than 100 µM; in assay [6], 2.8 µM. Besides, the TGI in assay [7] is 0.106 µM; in assay [8], 1.26 µM; in assay [9], less than 0.0248 µM; in assay [10], greater than 100 µM.
Turning to `c1ccc(C2=NC3(CCCCC3)N(c3nc4ccccc4s3)N2)nc1`, the TGI in assay [1] is 42.2 µM; in assay [2] it was 41.4 µM; in [3], greater than 100 µM; in assay [4], greater than 100 µM; in [5], 64.7 µM; in assay [6], 63.6 µM. In addition, the TGI in assay [7] was greater than 100 µM; in assay [8], 32 µM; in [9], 76.6 µM; in assay [10], 49.6 µM.
On to `O=C1N[C@H]2c3c(Cl)sc(Cl)c3/C(=N/O)[C@H]2O1`, for which the TGI in assay [1], in assay [2], in assay [3], in [4], in assay [5] and in assay [6] was greater than 100 µM in each case. For the same compound, the TGI in assay [7], in [8], in assay [9] and in assay [10] was greater than 100 µM throughout.
Turning to `Cc1ccc(C2CC(=O)CC(c3ccc(C)cc3)C23C(=O)NC(=O)NC3=O)cc1` (stereo not given), the TGI in assay [1], in assay [2], in assay [3], in [4], in assay [5] and in assay [6] was greater than 100 µM each time. Besides, the TGI in assay [7], in assay [8], in assay [9] and in assay [10] was greater than 100 µM in each case.
